The text below walks through data of US20230233541A1, “SUBSTITUTED BENZAMIDES AS MODULATORS OF TREX1” (Constellation Pharmaceuticals, Inc., priority 2020, published 2023).

One assay has as its target T1, full length human TREX1 (Homo sapiens, UniProt Q9NSU2).
T1 construct: N-terminally His-Tev tagged full length human TREX1; His-Tev (His tag with TEV protease site) (N); made in house; host or cells: E. coli
T1 sequence (Q9NSU2 1-314): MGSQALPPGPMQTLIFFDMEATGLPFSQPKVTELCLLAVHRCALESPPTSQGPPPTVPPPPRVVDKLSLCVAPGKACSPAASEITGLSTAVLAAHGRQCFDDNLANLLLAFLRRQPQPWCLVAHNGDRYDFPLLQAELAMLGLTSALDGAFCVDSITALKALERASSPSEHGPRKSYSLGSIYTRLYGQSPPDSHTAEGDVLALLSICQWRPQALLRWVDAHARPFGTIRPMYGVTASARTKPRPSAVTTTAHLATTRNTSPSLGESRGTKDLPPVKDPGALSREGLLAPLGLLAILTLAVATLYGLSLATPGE
In words: TREX1 Biochemical Assay (fluorescence assay, degradation of dsDNA substrate). The settings on record: 150 pM TREX1, 60 nM dsDNA substrate, 25 minutes at room temperature; read-out: hTREX1 EC50. A digest of the protocol:
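E. coli-expressed His-Tev-tagged full-length TREX1 (150 pM) with 60 nM quenched-fluorophore dsDNA in Tris pH 7.4, 150 mM NaCl, 100 mM MgCl2, 1% DMSO, 25 min room temperature, 10-point dose-response. EDTA stop; fluorescence 615 nm (ex 570 nm); IC50 from four-parameter fit against pre-quenched and no-inhibitor controls.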

Assay [1] concerns the target T2, human TREX2 (residues M44-A279) (Homo sapiens, UniProt Q9BQ50).
T2 construct: human TREX2 (residues M44-A279, expressed in E. coli); His-Tev (His tag with TEV protease site) (N); made in house; host or cells: E. coli
T2 sequence (Q9BQ50 44-279 isoform Q9BQ50-1): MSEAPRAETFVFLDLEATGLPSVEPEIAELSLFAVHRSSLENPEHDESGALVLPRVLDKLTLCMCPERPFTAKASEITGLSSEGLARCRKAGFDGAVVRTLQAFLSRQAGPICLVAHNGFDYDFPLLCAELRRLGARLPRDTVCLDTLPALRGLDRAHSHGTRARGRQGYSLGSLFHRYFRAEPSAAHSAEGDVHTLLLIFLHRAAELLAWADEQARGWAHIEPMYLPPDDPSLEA
In words: TREX2 Biochemical Assay (fluorescence assay, degradation of dsDNA substrate). The settings on record: 2.5 nM TREX2, 60 nM dsDNA substrate, 25 minutes at room temperature; read-out: hTREX2 EC50. A digest of the protocol: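 His-Tev-tagged human TREX2 (M44-A279, E. coli-expressed) at 2.5 nM final, with 60 nM TEX615/quencher-labelled dsDNA in pH 7.4 Tris buffer with MgCl2 and 1.0% DMSO, 10-point dose-response, 25 min at room temperature, then EDTA quench. Fluorescence read at 615 nm (ex 570 nm). IC50 from four-parameter fit against pre-quenched and no-inhibitor controls.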

For orientation: pEC50 means the EC50 on a negative log10 scale, so that one unit is a factor of ten.

Each structure is given as a SMILES string. pEC50: −log10 of the molar value. Bounds are passed on as bounds.

In the case of `O=C(c1cc(F)cc(F)c1)N(Cc1cccnc1)[C@H](c1cn[nH]c1)c1ccc(Cl)cc1Cl` [Compound 220], the results for the pEC50 (on full length human TREX1; in assay [1]) were 6.00 to 7.00 and 4.00 to 5.00, respectively.
With `COc1cc(C(=O)N(Cc2cccnc2)Cc2cc(Cl)cc(Cl)c2)cc(Br)c1O` [Compound 62], the pEC50 at full length human TREX1 was < 5.00; in assay [1], < 4.00.
For `CN(C)c1cc(C(=O)O)ncc1CN(Cc1cccc(Cl)c1Cl)C(=O)c1cc(F)cc(F)c1` [Compound 209], in that order: > 7.00 and 4.00 to 5.00.
The like results for `CC(C)[C@@H](c1ccc(Cl)cc1Cl)N(Cc1cccnc1)C(=O)c1cccc(F)c1` (single isomer, unassigned) [Compound 160] were, in that order, 5.00 to 6.00 and 4.00 to 5.00.
`CC(C)[C@H](c1ccc(Cl)cc1Cl)N(Cc1cccnc1)C(=O)c1cccc(F)c1` (single isomer, unassigned) [Compound 159]: the pEC50 at full length human TREX1 was 5.00 to 6.00; in assay [1], 4.00 to 5.00.
The like results for `CC[C@H](c1cccc(Cl)c1Cl)N(Cc1ccc(C(=O)O)nc1)C(=O)c1cc(F)cc(F)c1` [Compound 254] were, in that order, > 7.00 and 5.00 to 6.00.
For `O=C(c1cccc(F)c1)N(Cc1ccccn1)Cc1ccc(Cl)cc1Cl` [Compound 95], in that order: < 5.00 and < 4.00.
For `N#CCC[C@@H](c1ccccc1Cl)N(Cc1cccnc1)C(=O)c1cc(F)cc(F)c1` [Compound 177], in that order: 6.00 to 7.00 and 4.00 to 5.00.
Turning to `COC(=O)C[C@H](c1ccc(Cl)cc1Cl)N(Cc1cccnc1)C(=O)c1cc(F)cc(F)c1` [Compound 216], the pEC50 at full length human TREX1 was 5.00 to 6.00; in assay [1], 4.00 to 5.00.
For `O=C(c1ccc(CO)cc1)N(Cc1cccnc1)Cc1cc(Cl)cc(Cl)c1` [Compound 64], in that order: < 5.00 and < 4.00.
For `CC[C@@H](c1cccc(Cl)c1Cl)N(Cc1cnc(C(=O)O)c(N)c1)C(=O)c1cc(F)cc(F)c1` [Compound 236], in that order: > 7.00 and > 6.00.
The like results for `COC(=O)CC[C@H](c1ccccc1Cl)N(Cc1cccnc1)C(=O)c1cc(F)cc(F)c1` [Compound 241] were, in that order, 5.00 to 6.00 and 4.00 to 5.00.
With `O=C(Cc1ccccc1)N(Cc1cccnc1)Cc1ccc(Cl)cc1Cl` [Compound 94], the pEC50 is < 5.00 at full length human TREX1 and < 4.00 in assay [1].
Consider `O=C(O)c1ncc(CN(Cc2ccccc2Cl)C(=O)c2cc(F)cc(F)c2)cn1` [Compound 207], for which the pEC50 was 6.00 to 7.00 at full length human TREX1 and 4.00 to 5.00 in assay [1].
Regarding `CC(C)(C)c1ccc(C(=O)N(Cc2cccnc2)Cc2ccc(Cl)cc2Cl)cc1` [Compound 82], the pEC50 on full length human TREX1 is < 5.00; in assay [1], < 4.00.
For `O=C(c1ccc(Oc2ccc(F)cc2)cc1)N(Cc1cccnc1)Cc1cc(Cl)cc(Cl)c1` [Compound 74], in that order: < 5.00 and < 4.00.
Turning to `O=C(c1cccc(F)c1)N(Cc1cccnc1)Cc1ccccc1Cl` [Compound 139], the pEC50 at full length human TREX1 was 5.00 to 6.00; in assay [1], < 4.00.
For `O=C(c1ccc(O)c(Br)c1)N(Cc1cccnc1)Cc1cc(Cl)cc(Cl)c1` [Compound 73], in that order: < 5.00 and < 4.00.
For `CS(=O)(=O)NC(=O)c1ccc(CN(Cc2cccc(Cl)c2Cl)C(=O)c2cccc(F)c2)cn1` [Compound 259], in that order: 5.00 to 6.00 and < 4.00.
The like results for `CCC(=O)N(Cc1cccnc1)Cc1ccc(Cl)cc1Cl` [Compound 88] were, in that order, < 5.00 and < 4.00.
Turning to `COc1cc(C(=O)N(Cc2cccnc2)Cc2ccc(Cl)cc2Cl)ccc1F` [Compound 80], the pEC50 on full length human TREX1 was < 5.00; in assay [1] it was < 4.00.
Regarding `CNC(=O)c1ccc(CN(Cc2ccc(Cl)cc2Cl)C(=O)c2cccc(F)c2)cn1` [Compound 144, 5-({N-[(2,4-dichlorophenyl)methyl]-1-(3-fluorophenyl)formamido}methyl)-N-methylpyridine-2-carboxamide], the negative-log EC50 (pEC50) at full length human TREX1 is 5.00 to 6.00; in assay [1] it was < 4.00.
For `Cc1nonc1C(=O)N(Cc1cccnc1)Cc1ccc(Cl)cc1Cl` [Compound 116], in that order: < 5.00 and < 4.00.
For `CC[C@H](c1cccc(Cl)c1Cl)N(Cc1ccc(C(=O)O)nc1)C(=O)c1cc(F)cc(F)c1` [Compound 255], in that order: > 7.00 and > 6.00.
Take `O=C(c1ccc(Oc2ccc(F)cc2)cc1)N(Cc1cccnc1)Cc1ccc(Cl)cc1Cl` [Compound 39]: the negative logarithm of the EC50 (pEC50) on full length human TREX1 is < 5.00; in assay [1], < 4.00.
The like results for `Nc1ccc(CN(Cc2ccc(Cl)cc2Cl)C(=O)c2cccc(F)c2)cn1` [Compound 146, N-[(6-aminopyridin-3-yl)methyl]-N-[(2,4-dichlorophenyl)methyl]-3-fluorobenzamide] were, in that order, 5.00 to 6.00 and < 4.00.
For `O=C(c1cc(Br)c(O)c(Br)c1)N(Cc1cccnc1)Cc1ccc(Cl)cc1Cl` [Compound 40], in that order: < 5.00 and < 4.00.
For `O=C(c1ccc(CO)cc1F)N(Cc1cccnc1)Cc1cc(Cl)cc(Cl)c1` [Compound 60], in that order: < 5.00 and < 4.00.
`O=C(c1cc(F)cc(F)c1)N(Cc1ccc(-c2nnn[nH]2)nc1)Cc1ccccc1Cl` [Compound 169]: the pEC50 is 6.00 to 7.00 on full length human TREX1 and 4.00 to 5.00 in assay [1].
For `O=C(c1cccc(F)c1)N(Cc1cccnc1)Cc1cccc(Cl)c1Cl` [Compound 136], in that order: 6.00 to 7.00 and 4.00 to 5.00.
The like results for `N#Cc1ccc(C(=O)N(Cc2cccnc2)Cc2ccc(Cl)cc2Cl)cc1` [Compound 103] were, in that order, < 5.00 and < 4.00.
The like results for `O=C(c1ccccc1Oc1ccccc1)N(Cc1cccnc1)Cc1cc(Cl)cc(Cl)c1` [Compound 55] were, in that order, < 5.00 and < 4.00.
`O=C(c1ccc(F)c(F)c1F)N(Cc1cccnc1)Cc1ccc(Cl)cc1Cl` [Compound 123]: the pEC50 at full length human TREX1 is 5.00 to 6.00; in assay [1], < 4.00.
For `O=C(c1ccc(F)cc1)N(Cc1cccnc1)Cc1ccc(Cl)cc1Cl` [Compound 98], in that order: < 5.00 and < 4.00.
The like results for `CC[C@@H](c1cccc(OC)c1Cl)N(Cc1cnc(C(=O)O)c(N)c1)C(=O)c1cc(F)cc(F)c1` [Compound 252] were, in that order, > 7.00 and 4.00 to 5.00.
The like results for `O=C(c1ccc(F)c(Br)c1)N(Cc1cccnc1)Cc1cc(Cl)cc(Cl)c1` [Compound 38] were, in that order, < 5.00 and < 4.00.
Take `CC[C@H](c1ccc2c(c1Cl)OCO2)N(Cc1ccc(C(=O)O)nc1)C(=O)c1cc(F)cc(F)c1` [Compound 233]: the negative-log EC50 (pEC50) at full length human TREX1 is > 7.00; in assay [1], 5.00 to 6.00.
For `O=C(c1ccc(F)c(Br)c1)N(Cc1cccnc1)Cc1ccc(Cl)cc1Cl` [Compound 12], in that order: 5.00 to 6.00 and < 4.00.
For `NCCC[C@@H](c1cccc(Cl)c1Cl)N(Cc1cccnc1)C(=O)c1cc(F)cc(F)c1` [Compound 248], in that order: > 7.00 and 4.00 to 5.00.
For `O=C(c1cccc(Br)c1)N(Cc1cccnc1)Cc1cc(Cl)cc(Cl)c1` [Compound 30], in that order: < 5.00 and < 4.00.
On to `O=C(c1cccc(F)c1)N(Cc1cccnc1)Cc1cccc(F)c1Cl` [Compound 137], for which the pEC50 was 6.00 to 7.00 on full length human TREX1 and 4.00 to 5.00 in assay [1].
For `CCOc1cccc([C@H](CC)N(Cc2ccc(C(=O)O)nc2)C(=O)c2cc(F)cc(F)c2)c1Cl` [Compound 229], in that order: > 7.00 and 5.00 to 6.00.
For `O=C(c1ccccc1Oc1ccccc1)N(Cc1cccnc1)Cc1ccc(Cl)cc1Cl` [Compound 44], in that order: < 5.00 and < 4.00.
As to `O=C(c1ccc(O)c(F)c1)N(Cc1cccnc1)Cc1cc(Cl)cc(Cl)c1` [Compound 57], the values for the pEC50 (at full length human TREX1; in assay [1]) were < 5.00 and < 4.00, respectively.
With `CC[C@@H](c1ccc(Cl)cc1Cl)N(Cc1cccnc1)C(=O)c1cccc(F)c1` (single isomer, unassigned) [Compound 158], the figures for the pEC50 (at full length human TREX1; in assay [1]) were 5.00 to 6.00 and 4.00 to 5.00, respectively.
